According to ChEMBL document CHEMBL1201862, “PubChem BioAssay data set” (2004):
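Exposure lasted 48 hours, with cells grown in 96-well plates and compounds tested at five concentrations. GI50 marks 50% less growth.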 Active and inactive are the calls of the source. No stated cut-off is given here; in the data, active = GI50 up to about 1.1 µM and inactive = higher.

Experiments:
Assay in all cases: DTP human tumour cell line panel, 48 h
NCI/ADR-RES = system: NCI/ADR-RES
HOP-92 = system: HOP-92
MOLT-4 = system: MOLT-4
KM12 = system: KM12
TK-10 = system: TK-10
MDA-MB-231 = system: MDA-MB-231
NCI-H226 = system: NCI-H226
BT-549 = system: BT-549
786-0 = system: 786-0
UACC-257 = system: UACC-257
DU-145 = system: DU-145
SK-MEL-5 = system: SK-MEL-5
EKVX = system: EKVX
NCI-H522 = system: NCI-H522
SF-295 = system: SF-295
HL-60 = system: HL-60
Malme-3M = system: Malme-3M
SN12C = system: SN12C
OVCAR-3 = system: OVCAR-3

Row | Structure (SMILES) | GI50 (NCI/ADR-RES) | GI50 (HOP-92) | GI50 (MOLT-4) | GI50 (KM12) | GI50 (TK-10) | GI50 (MDA-MB-231) | GI50 (NCI-H226) | GI50 (BT-549) | GI50 (786-0) | GI50 (UACC-257) | GI50 (DU-145) | GI50 (SK-MEL-5) | GI50 (EKVX) | GI50 (NCI-H522) | GI50 (SF-295) | GI50 (HL-60) | GI50 (Malme-3M) | GI50 (SN12C) | GI50 (OVCAR-3)
1 | N#CC12C(=O)N=C(N)C1(C#N)C(c1ccco1)NC1=C2CCCC1 (stereo not drawn) | > 100 µM (inactive) | > 100 µM (inactive) | > 100 µM (inactive) | > 100 µM (inactive) | > 100 µM (inactive) | > 100 µM (inactive) | > 100 µM (inactive) | > 100 µM (inactive) | > 100 µM (inactive) | > 100 µM (inactive) | > 100 µM (inactive) | > 100 µM (inactive) | > 100 µM (inactive) | > 100 µM (inactive) | > 100 µM (inactive) | > 100 µM (inactive) | > 100 µM (inactive) | > 100 µM (inactive) | –
2 | COc1cccc2c1/c(=C/c1ccc(N(C)C)cc1)c1cc(-c3ccccc3)[n+](C)n12 | 3.19 µM (inactive) | 0.0414 µM (active) | 0.0897 µM (active) | 0.107 µM (active) | 0.165 µM (active) | 0.259 µM (active) | 0.177 µM (active) | 0.0875 µM (active) | 0.074 µM (active) | 0.113 µM (active) | 0.0986 µM (active) | 0.155 µM (active) | – | 0.168 µM (active) | 0.0813 µM (active) | 0.0155 µM (active) | 0.221 µM (active) | 0.0331 µM (active) | 0.0857 µM (active)
3 | CCN(CC)CCCNC(=O)c1cc(-c2nccn2C)nc2ccccc12 | > 100 µM (inactive) | > 100 µM (inactive) | > 100 µM (inactive) | > 100 µM (inactive) | > 100 µM (inactive) | > 100 µM (inactive) | > 100 µM (inactive) | > 100 µM (inactive) | > 100 µM (inactive) | > 100 µM (inactive) | > 100 µM (inactive) | > 100 µM (inactive) | > 100 µM (inactive) | > 100 µM (inactive) | – | > 100 µM (inactive) | > 100 µM (inactive) | > 100 µM (inactive) | –
4 | COc1cc(S(=O)(=O)Nc2nc(-c3ccc(N4C(=O)/C(=C/C=C/c5ccccc5)N=C4c4ccccc4)cc3)cs2)ccc1Cl | > 100 µM (inactive) | 28.3 µM (inactive) | 69 µM (inactive) | > 100 µM (inactive) | > 100 µM (inactive) | 34.3 µM (inactive) | > 100 µM (inactive) | 45 µM (inactive) | > 100 µM (inactive) | > 100 µM (inactive) | > 100 µM (inactive) | 53 µM (inactive) | – | 48.2 µM (inactive) | > 100 µM (inactive) | 60.7 µM (inactive) | 29.2 µM (inactive) | > 100 µM (inactive) | > 100 µM (inactive)
5 | BrCC(Br)(c1ccccc1)c1ccccc1-c1cc(-c2ccccc2)cc(-c2ccccc2)n1 (stereo not drawn) | 33.9 µM (inactive) | 2.48 µM (inactive) | 3.26 µM (inactive) | 3.13 µM (inactive) | 5.82 µM (inactive) | 3.15 µM (inactive) | 3.72 µM (inactive) | 2.51 µM (inactive) | 3.64 µM (inactive) | 2.04 µM (inactive) | 4.12 µM (inactive) | 1.55 µM (inactive) | 3.85 µM (inactive) | 2.33 µM (inactive) | 2.9 µM (inactive) | 1.07 µM (active) | 3.16 µM (inactive) | 12.3 µM (inactive) | –
6 | CC(C(N)=O)N(C)C(=O)c1cc2ccccc2[n+](Cc2ccccc2)c1 (stereo not drawn) | > 100 µM (inactive) | > 100 µM (inactive) | > 100 µM (inactive) | > 100 µM (inactive) | > 100 µM (inactive) | > 100 µM (inactive) | > 100 µM (inactive) | > 100 µM (inactive) | > 100 µM (inactive) | > 100 µM (inactive) | > 100 µM (inactive) | > 100 µM (inactive) | – | > 100 µM (inactive) | > 100 µM (inactive) | > 100 µM (inactive) | > 100 µM (inactive) | > 100 µM (inactive) | > 100 µM (inactive)
7 | O=C(Nc1ccccc1)n1[nH]c(=O)n(-c2ccccc2)c1=O | > 100 µM (inactive) | > 100 µM (inactive) | – | > 100 µM (inactive) | > 100 µM (inactive) | > 100 µM (inactive) | > 100 µM (inactive) | > 100 µM (inactive) | > 100 µM (inactive) | > 100 µM (inactive) | > 100 µM (inactive) | > 100 µM (inactive) | – | > 100 µM (inactive) | > 100 µM (inactive) | > 100 µM (inactive) | > 100 µM (inactive) | > 100 µM (inactive) | –
8 | Cc1ccc2nc(CN3CCCC(O)C3)cc(=O)n2c1 (stereo not drawn) | > 100 µM (inactive) | > 100 µM (inactive) | > 100 µM (inactive) | > 100 µM (inactive) | > 100 µM (inactive) | > 100 µM (inactive) | > 100 µM (inactive) | > 100 µM (inactive) | > 100 µM (inactive) | > 100 µM (inactive) | > 100 µM (inactive) | – | > 100 µM (inactive) | > 100 µM (inactive) | > 100 µM (inactive) | > 100 µM (inactive) | > 100 µM (inactive) | > 100 µM (inactive) | > 100 µM (inactive)
9 | Nc1nc(I)nc2c1ncn2C1OC(COS(N)(=O)=O)C(O)C1O (stereo not drawn) | < 0.01 µM (active) | < 0.0142 µM (active) | < 0.01 µM (active) | < 0.01 µM (active) | 0.0102 µM (active) | < 0.01 µM (active) | < 0.01 µM (active) | < 0.0108 µM (active) | < 0.0106 µM (active) | 0.0163 µM (active) | < 0.01 µM (active) | < 0.01 µM (active) | < 0.0121 µM (active) | < 0.01 µM (active) | 0.0393 µM (active) | – | < 0.01 µM (active) | < 0.01 µM (active) | < 0.01 µM (active)
10 | CN1CCN(C(=S)N2CCN(C)CC2)CC1 | 25.3 µM (inactive) | > 100 µM (inactive) | – | > 100 µM (inactive) | > 19.7 µM (inactive) | > 100 µM (inactive) | > 100 µM (inactive) | > 100 µM (inactive) | 21.9 µM (inactive) | > 100 µM (inactive) | > 100 µM (inactive) | > 26.1 µM (inactive) | – | 0.966 µM (active) | > 100 µM (inactive) | > 100 µM (inactive) | > 100 µM (inactive) | > 100 µM (inactive) | –
11 | CCOC(=O)c1c(C)nc2c(c1-c1cn(-c3ccccc3)nc1-c1ccccc1)C(=O)c1ccccc1-2 | > 100 µM (inactive) | > 100 µM (inactive) | > 100 µM (inactive) | 0.337 µM (active) | > 100 µM (inactive) | > 100 µM (inactive) | > 100 µM (inactive) | > 100 µM (inactive) | > 100 µM (inactive) | > 100 µM (inactive) | > 100 µM (inactive) | > 100 µM (inactive) | > 100 µM (inactive) | > 100 µM (inactive) | > 100 µM (inactive) | – | > 100 µM (inactive) | > 100 µM (inactive) | > 100 µM (inactive)
12 | COc1cc2c(/C=C3/C(=O)Nc4cc(C)c(O)cc43)c(Cl)[nH]c2cc1C | 2.88 µM (inactive) | 23 µM (inactive) | 0.148 µM (active) | 1.85 µM (inactive) | 1.9 µM (inactive) | 2.59 µM (inactive) | 5.69 µM (inactive) | 6.75 µM (inactive) | 2.59 µM (inactive) | 6.18 µM (inactive) | 2.75 µM (inactive) | 2.31 µM (inactive) | – | 2.98 µM (inactive) | 1.52 µM (inactive) | 1.86 µM (inactive) | 0.407 µM (active) | 2.4 µM (inactive) | 1.06 µM (active)
13 | NC(=O)N=C(N(Cc1ccccc1)Cc1ccccc1)N(Cc1ccccc1)Cc1ccccc1 | > 100 µM (inactive) | 4.3 µM (inactive) | > 100 µM (inactive) | > 100 µM (inactive) | > 65.3 µM (inactive) | 15.3 µM (inactive) | > 100 µM (inactive) | > 100 µM (inactive) | 14.9 µM (inactive) | – | > 100 µM (inactive) | > 20.3 µM (inactive) | > 100 µM (inactive) | 6.43 µM (inactive) | 3.91 µM (inactive) | – | > 100 µM (inactive) | 6.08 µM (inactive) | 5.08 µM (inactive)
14 | Cc1cc(S(=O)(=O)/N=C(\NN)NNc2cccc(C(F)(F)F)n2)c(S)cc1Cl | 19.8 µM (inactive) | 4.21 µM (inactive) | 19.2 µM (inactive) | 16.9 µM (inactive) | 26.2 µM (inactive) | 31.4 µM (inactive) | 18.3 µM (inactive) | 13.3 µM (inactive) | 19.4 µM (inactive) | 32.6 µM (inactive) | 18.5 µM (inactive) | 20 µM (inactive) | 22.6 µM (inactive) | 24.4 µM (inactive) | – | 27.4 µM (inactive) | 19.1 µM (inactive) | 30.6 µM (inactive) | 22.1 µM (inactive)
15 | Cc1cc2c(cc1C)[n+]([O-])c(N1CCN(c3ccc([N+](=O)[O-])cc3)CC1)c(C#N)[n+]2[O-] | 26.2 µM (inactive) | 23.2 µM (inactive) | – | > 100 µM (inactive) | 15 µM (inactive) | 20 µM (inactive) | 35.6 µM (inactive) | 32.4 µM (inactive) | 14.1 µM (inactive) | 85.9 µM (inactive) | 32.8 µM (inactive) | 75.7 µM (inactive) | 26 µM (inactive) | 26.2 µM (inactive) | 15.2 µM (inactive) | > 100 µM (inactive) | 69.5 µM (inactive) | 35.3 µM (inactive) | –
